Reference: PMC10788856, “Mimicking Nonribosomal Peptides from the Marine Actinomycete Streptomyces sp. H-KF8 Leads to Antimicrobial Peptides” (ACS Infectious Diseases, 2023)
Read-outs that look alike come from different tables or passages of the source. Square brackets hold non-standard residues; d marks the D form. Peptide text beside a SMILES is read from it. Orn = NCCC[C@H](N)C(=O)O

How the values were obtained:
E. coli CCUG31246 [1] = assay type: cell-based
Procedure: MICs were performed under the same growth conditions used for mode of action analysis following the guidelines issued by the Clinical Laboratory Standardization Institute (CLSI) with slight modifications. Serial two-fold dilutions of the peptides were prepared in 1:10 BHI in a sterile 96-well plate and subsequently inoculated with 5 × 10^5 CFU/mL of E. coli CCUG31246. […] The following MICs were obtained: C3: 512 μg/mL, L3: 64 μg/mL, and L3-K: 128 μg/mL. These concentrations were used for all mechanistic experiments. Polymyxin B was used as a positive control in all assays at a final concentration of 10 μg/mL.

C. albicans = assay: microbe, parasite or virus in culture; assay type: cell-based; conditions: 16 h
[2] = test system: hepatoblastoma (HepG2) cells; assay type: cell-based, human
Procedure: (§1) To confirm the peptide selectivity toward bacteria cells, cytotoxicity assays of synthesized peptides L2, L3, L3-K, and C3 against human embryonic kidney (HEK) and hepatoblastoma (HepG2) were performed (Figure 4). The cell viability was assessed using resazurin 24 h post peptide exposure. The line at 70% cell viability marks out the threshold for cytotoxic potential compared to the negative control.
(§2) Figure 4 Cell viability assessment using the resazurin assay 24 h post peptide exposure: (a) HepG2 and (b) HEK cells were treated with various concentrations of the peptides C3, L3, L3-K, and L2. Triton-X was used as a positive control. Cells cultured in pure cell media were used as negative controls and were considered to have 100% cell viability. The line represents the threshold for cytotoxicity level of 70% of cell viability compared to the negative control. Data are presented as the mean ± SD of three biological replicates of the HepG2 cells and the mean ± SD of two biological replicates of the HEK cells.
(§3) Cytotoxicity against human embryonic kidney (HEK) and hepatoblastoma (HepG2) cell lines was assessed. Cells were grown to an initial seeding density of 10 000 cells per well. Metabolic activity was determined in a resazurin-based assay. HEK and HepG2 cells were exposed to four different concentrations of the peptides for 24 h. Treatment with Triton X-100 at 1% v/v was used as a positive control. Following this exposure period, the cells were treated with resazurin at a final concentration of 0.015 mg/mL for 3 h. The metabolic activity was then determined in an resazurin-based assay. The fluorescence intensities were quantified in a Hidex Sense microplate reader using an excitation wavelength of 544 nm and an emission wavelength of 590 nm.

S. aureus = assay: microbe, parasite or virus in culture; assay type: cell-based; conditions: 16 h
[3] = 37 °C, RP-HPLC
Procedure: Peptide stability in serum is another limiting factor for AMPs as novel antibiotics.[30]
Peptide serum stability was performed according to D́Aloisio et al.[30] and Chen et al.[51] with some minor modifications. The serum stability was investigated using human serum (Sigma-Aldrich) from Human male AB plasma, USA origin, sterile-filtered. 250 μL serum was temperature-equilibrated at 37 °C and 100 μL aqueous peptide solution (L2: 1 mM; L3: 0.9 mM; L3-K: 0.7 mM; and C3: 0.5 mM) was added. RP-HPLC was measured at time intervals of 0, 0.5, 1, 4, and 24 h. For RP-HPLC samples, 30 μL of peptide solution was taken, 7 μL of Fmoc-Gly solution (4 mM) was added, and 2 μL of the sample was injected to HPLC. […]
Figure S 133. RP-HPLC chromatogram (gradient from 10 to 90% acetonitrile in water over 10 min at 2
ml/min, detection at 254 nm) of peptides tested for serum stability. A) peptide L2 B) peptide L3. C)
(1 picture or pasted object on this page, not shown here)

[4] = test system: human embryonic kidney (HEK) cells; assay type: cell-based
Procedure: as §1, §2, §3

[5] = set-up: method as in PMID 20518462; conditions: nitrotyrosine side chain; cited from earlier work
E. coli CCUG31246 [6] = assay: Bacterial cytological profiling (DAPI, FM4-64, phase contrast); assay type: cell-based; conditions: polymyxin B 10 μg/mL
Procedure: To gain insight into the peptides’ antimicrobial mechanisms, bacterial cytological profiling was performed. This live-cell imaging method makes use of different fluorescent dyes and protein fusions together with phase contrast microscopy to assess the phenotype of bacterial cells after antibiotic treatment.[33] Single-cell analysis then gives insight into the extent and population heterogeneity of the observed phenotypic effects. In this study, we used the DNA dye DAPI and the membrane dye FM4-64 and analyzed the effects of the compounds on cell length, nucleoid compaction, and membrane morphology (Figures 6 and S15). […] In the preparation of mechanistic studies, MICs were determined. […]
Bacterial cytological profiling was performed according to Wenzel et al.[34] […] Stained samples were spotted on 1.2% agarose films, sealed with a gene frame, and immediately imaged using a Nikon Eclipse Ti2 inverted fluorescence live-cell imaging system equipped with a CFI Plan Apochromat DM Lambda 100X Oil objective (N.A. = 1.45 and W.D. = 0.13 mm), a Photometrics, PRIME BSI camera, a Lumencor Sola SE II FISH 365 light source, and an Okolab temperature incubation chamber. Images were obtained using the NIS elements AR software version 5.21.03 and were processed and analyzed with ImageJ.[53] Quantification of microscopy images was performed using the ImageJ plugins ObjectJ[54] and MicrobeJ.[55] […]

E. coli CCUG31246 [7] = assay: DiSC(3)5 microscopy (membrane potential); assay type: cell-based; conditions: 1× MIC of peptide, polymyxin B 10 μg/mL; 10 min; 0.5 μM DiSC(3)5
From the text: Propidium iodide is a large organic molecule that is not suitable to detect smaller ion-conducting pores or channels induced by antimicrobials. To assess whether the peptides may form smaller membrane pores sufficient for the passage of ions, we tested their effects on the membrane potential using the fluorescence probe DiSC(3)5.[40] This dye accumulates in the cell membrane in a membrane potential-dependent manner and disassociates, when the membrane potential is dissipated. […] This effect can be clearly seen with polymyxin B (Figure 7b).
The membrane potential of E. coli CCUG31246 and E. coli MC4100 carrying pABCON2-fhuA ΔC/Δ4L was measured by DiSC(3)5 microscopy according to ref. ([40]) with minor modifications. Cells were grown in 1:10 BHI containing 50 μg/mL bovine serum albumin to an OD600 of 0.3 prior to antibiotic treatment with the respective peptides for 10 and 60 min. Samples were stained with 0.5 μM DiSC(3)5 for 15 min (added 5 min before adding antibiotics for the 10 min time point and after 45 min of antibiotic treatment for the 60 min time point). Stained samples were spotted on 1.2% agarose, sealed with a gene frame, and imaged immediately. Microscopy was performed as described above, and fluorescence intensity was analyzed with the same parameters used for propidium iodide detection.

E. coli CCUG31246 [8] = assay: Propidium iodide staining (pore formation); assay type: cell-based; conditions: 1× MIC of peptide, polymyxin B 10 μg/mL; 10 and 60 min
Procedure: Due to the overall similarity of the peptides’ cytological profiles to that of polymyxin B, we further tested their ability to form pores in the cell membrane. To this end, we used the fluorescence probe propidium iodide, which cannot cross intact membranes but can enter cells through pores of sufficient size.[39]
Pore formation was investigated with the fluorescence dye propidium iodide as described previously[56] with minor modifications. E. coli CCUG31246 was grown to an OD600 of 0.3 and subsequently treated with different peptides for 10 and 60 min. Samples were stained with 1 μg/mL propidium iodide for 15 min (added 5 min before adding antibiotics for the 10 min time point and after 45 min of antibiotic treatment for the 60 min time point), spotted on 1.2% agarose films, and sealed with a gene frame. Microscopy was performed as described above. The fluorescence intensity of the different samples was analyzed with MicrobeJ. For detection of bacterial cells from phase contrast images, parameters were set to an area of 1.5-max, length of 1-max, width 0.5–2.5, curvature 0–1.5, and an angularity of 0–0.5. Fluorescence intensity parameters were set to an area of 1.5-max, length of 1-max, and width 0.5–2.5. All other parameters remained at default settings.

[9] = test system: Escherichia coli (CCUG 31246); assay: Minimum microbicidal concentration (MMC99) assay; assay type: cell-based, E. coli; conditions: BHI diluted 1/100, 37 °C, median, n = 3
Procedure: The microbicidal activity of the synthetic peptides was assessed against S. aureus (ATCC 12600; American Type Culture Collection, Manassas, VA, USA), Escherichia coli (CCUG 31246; Culture Collection, University of Gothenburg, Sweden), and Candida albicans (ATCC 64549/CCUG31028) using an MMC assay, as described previously by […] et al. (specific details in Supporting Information, pages 10, 11).[28] The assay was performed in BHI diluted 1/100 (BHI100). […] page 11: Table S5. Energy and structural ensembles of synthesized peptides. […] Energy -3887.06 -3620.88 -4968.42 -2163.76 -2646.75 Van der Waals solv. Energy 117.32 91.57 183.20 -88.88 -139.89 Mean RMSD* (Å), mean±SD […] Heavy atoms 1.87 ± 0.33 1.77 ± 0.50 0.98 ± 0.34 0.63 ±0.22 2.88 ±0.62 MMC99 activity including salt stability measurements Antimicrobial activity of L2 and L3 in the presence of NaCl. 1Table S6. Peptide MMC99 (μg/ml) sin NaCl S. aureus E.coli C. albicans (mM) 2[…] 0 50 25 25 85 - - - - - - >200 >200 >200 150 - - - - - - >200 >200 >200 3L 0 12.5 12.5 25 12,5 6.3 6.3 12.5 6.3 12.5 […] 150 >400 >400 (-)2 >400 >400 >400 >200 >200 >200 […] or 150 mM NaCl. L2 and L3 were serially diluted in twofold steps with a starting dilution of 200 μg/ml […] All sample dilutions were run in duplicates (L2) or triplicates (L3). 2 The growth of S. aureus at 24 h in BHI 100 with 85 or 150 mM NaCl was reduced. Minimum microbicidal concentration (MMC), killing 99% of the inoculum. All microorganisms were cultured in brain-heart infusion broth (BHI) overnight on a shaker at 37°C. The cultures were thereafter transferred to fresh BHI broth in volumes constituting 10% of total, and incubated for an additional 2 h to reach exponential growth phase. The bacterial cultures were washed once in BHI diluted 1/100 (BHI100), followed by resuspension in BHI100. The cell suspensions were diluted to a density of […] (bacteria) or 2x10^7 CFU/ml (yeast), as estimated by optical density measurement at 590 nm. […] Serum stability Figure S 133. […] A) peptide L2 B) peptide L3. C) peptide L3-K. D) peptide C3.

Molecule: CC(C)[C@@H](NC(=O)[C@H](CCCN)NC(=O)[C@@H](NC(=O)[C@H](CCCN)NC(=O)[C@H](Cc1c[nH]c2ccccc12)NC(=O)[C@@H](C)NC(=O)[C@H](NC(=O)[C@@H](C)N)C(C)C)[C@@H](C)O)C(=O)N[C@@H](CCCCN)C(N)=O [L2] (H-[dA][dV][dA]W[Orn]T[Orn][dV]K-NH2)
- E. coli MIC (E. coli CCUG31246 [1]; CCUG31246, 16 h): >512 µg/mL
- C. albicans MIC (C. albicans): >512 µg/mL
- cytotoxicity, cell viability HepG2 [2]: no cytotoxicity at any tested concentration
- S. aureus MIC (S. aureus): >512 µg/mL
- stability in human serum ([3]; human serum from male AB plasma, 250 μL serum + 100 μL aqueous peptide solution (L2 1 mM; L3 0.9 mM; L3-K 0.7 mM; C3 0.5 mM), 0, 0.5, 1, 4, 24 h, Fmoc-Gly internal standard): stable after 24 h
- additional peaks / shoulder in chromatogram after 24 h in serum, total volume percentage ([3]; human serum, 24 h, detection at 254 nm): 0.4%
- cytotoxicity, cell viability HEK [4]: no cytotoxicity at any tested concentration

Molecule: N[C@@H](Cc1ccc(O)c([N+](=O)[O-])c1)C(=O)O [Y-NO2]
- pKa value [5]: 7.1

Molecule: polymyxin B [PolB, reference compound]
- E. coli MIC (E. coli CCUG31246 [1]; 1:10 BHI, 5 × 10^5 CFU/mL, 37 °C, 16 h, highest concentration 512 μg/mL, median, n = 3): 2.3 µg/mL
- cells with unstained (reduced FM4-64 membrane stain) phenotype after 10 min (E. coli CCUG31246 [6]): over 90%
- membrane potential, DiSC(3)5 fluorescence, 10 min (E. coli CCUG31246 [7]): clear and immediate reduction in the DiSC(3)5 fluorescence intensity
- propidium iodide uptake (E. coli CCUG31246 [8]): near-instantaneous uptake of the dye throughout the bacterial population
- E. coli MMC99 2 h ([9]; 2 h): <1.6 µg/mL
- E. coli MMC99 6 h ([9]; 6 h): <1.6 µg/mL
- E. coli MMC99 24 h ([9]; 24 h): <1.6 µg/mL
